Data published in patent US10568879B2 (GALAPAGOS NV, priority 2015, dated 2020).
pIC50: −log10 of the molar value.

How the values were obtained:
GPR84 = biological target: T1, GPR84 (Homo sapiens, UniProt Q9NQS5); experiment: GPR84 [35S]GTPγS binding assay; format: biochemical; conditions: 3,3′-diindolylmethane at EC80; membranes from stable cell line over expressing GPR84
T1 construct: expressed in transfected cells
Summary of the method: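 Antagonist-mode [35S]GTPγS binding on membranes from a GPR84-overexpressing stable line (GDP-preincubated), stimulated with 3,3′-diindolylmethane at EC80. Buffer 20 mM Tris pH 7.5, 5 mM MgCl2, 250 mM NaCl, saponin; 0.1 nM [35S]GTPγS, 90 min at room temperature, SPA bead read-out.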

human neutrophils = experiment: Human neutrophil migration assay; format: cell-based; conditions: Homo sapiens, Neutrophil; embelin at EC80 as chemotactic agent; 1 h at 37° C.; read-out: Human neutrophil migration IC50
Protocol: The activity of GPR84 agonists and antagonists can therefore be assayed in a human neutrophil migration assay. The human neutrophil migration assay makes use of freshly isolated human neutrophils from buffy coats that are subsequently used in a functional chemotaxis assay setup. […] After 1 h of incubation at 37° C. and 5% CO2, the number of migrated neutrophils in the lower compartment can be quantified by measuring the ATP content using ATPlite™ Luminescence Assay System. A human buffy coat suspension is diluted with an equal volume of ice cold DPBS. 20 mL of the diluted buffy coat suspension is gently mixed with 4 mL of ACD buffer (140 mM citric acid, 200 mM sodium citrate and 220 mM dextrose). Then, 12 mL of a 6% dextran/0.9% NaCl solution (15 g dextran T2000 and 2.25 g NaCl dissolved in 250 mL H2O) is added to the mixture and the samples are inverted gently up to 20 times. The total volume is transferred to a new recipient and incubated at room temperature to allow sedimentation of red blood cells. The yellowish upper fraction is then transferred to a clean centrifugation tube and centrifuged for 12 min at 1300 rpm and 4° C. After centrifugation, the supernatant is discarded and the remaining cell pellet is rapidly resuspended in 12 mL of ice-cold H2O to perform a red blood cell lysis by osmotic burst. After 20 seconds, 4 mL of ice-cold 0.6 M KCl is added to restore salt concentration. Samples are mixed carefully and centrifuged for 6 min at 1300 rpm and 4° C. The supernatant is discarded and the red blood cell lysis procedure is repeated one more time. […] A neutrophil cell suspension of 8.9×10^6 cells per mL is prepared in chemotaxis buffer and 180 μL per well is plated in a 96-well V-bottom plate. 20 μL of test compound solution in chemotaxis buffer is added to the 180 μL cell suspension. The mixture is incubated at room temperature for 30 min with intermediate gentle resuspension of the cells after 15 min. […] After 1 h at 37° C., 5% CO2 in a humidified incubator, the upper plate of the Transwell® system is gently removed. […] After incubation, 270 μL of cell lysate is then transferred onto a white 96-well plate for quantification by a luminescence plate reader. The relative luminescent signal measured is considered linearly related to the number of cells having migrated from the upper compartment into the receiver well.

[1] = Chemical stability in aqueous solutions with different pH; format: physicochemical; conditions: 2 μM; for % rem. (2 h) pH 1.2 / % rem. (24 h) pH 1.2: pH 1.2 hydrochloric acid buffer; for % rem. (2 h) pH 1.2 / % rem. (2 h) pH 5.0 / % rem. (2 h) pH 7.4 / % rem. (2 h) pH 9.0: 2 h incubation at 37° C.; for % rem. (24 h) pH 1.2 / % rem. (24 h) pH 5.0 / % rem. (24 h) pH 7.4 / % rem. (24 h) pH 9.0: 24 h incubation at 37° C.; for % rem. (2 h) pH 5.0 / % rem. (24 h) pH 5.0: pH 5.0 acetate buffer; for % rem. (2 h) pH 7.4 / % rem. (24 h) pH 7.4: pH 7.4 phosphate buffer; for % rem. (2 h) pH 9.0 / % rem. (24 h) pH 9.0: pH 9.0 Tris buffer
Protocol: This in vitro model is aimed at assessing the stability of a test compound in aqueous solutions with different pH. The decrease in parent compound is assessed by measuring the percentage parent remaining after 2 and 24 h incubation at 37° C.
A 2 mM DMSO stock is made for each test compound starting from dry matter. Then a 80 μM working solution of compound in DMSO is made by diluting the 2 mM DMSO.
The 80 μM working solution is diluted to a final concentration of 2 μM-2.5% DMSO in buffer with the desired pH (pH 1.2: hydrochloric acid buffer, pH 5.0: acetate buffer, pH 7.4: phosphate buffer, pH 9.0: Tris buffer) in 96-well plates with glass inserts (Cat no. 548-0201/548-0202, VWR-Thermo Scientific). Two replicates are run for each buffer solution and each time point.
One set of vials is incubated for 24 h at 200 rpm and another for 2 h at 200 rpm. To stop the reaction after the respective incubation times, 4 volumes of acetonitrile containing the internal standard (stop solution) are added to the reaction solution and the vials are vortexed briefly.
For the 0 h incubation, the stop solution with internal standard is first added to the buffer solution in glass vials and then the working solution of test compound (final concentration: 2 μM-2.5% DMSO) is added.
Propranolol is used as internal standard, but if the mass difference is too low with the test compound(s), another product is selected as internal standard. The concentration of the internal standard is chosen to obtain a peak area half of the average peak area of the test compounds and control at time point 0.
Analysis is performed on an LCMS-MS system (API2000 or API4000). The average of the peak areas of the two replicates from the parent compound at time 0 divided by the peak area of the internal standard is considered to be 100% remaining. The percentage remaining after 2 and 24 h of incubation is calculated for all other peaks and the percentage remaining after 2 and 24 h is reported.

T1 sequence (Q9NQS5 whole entry): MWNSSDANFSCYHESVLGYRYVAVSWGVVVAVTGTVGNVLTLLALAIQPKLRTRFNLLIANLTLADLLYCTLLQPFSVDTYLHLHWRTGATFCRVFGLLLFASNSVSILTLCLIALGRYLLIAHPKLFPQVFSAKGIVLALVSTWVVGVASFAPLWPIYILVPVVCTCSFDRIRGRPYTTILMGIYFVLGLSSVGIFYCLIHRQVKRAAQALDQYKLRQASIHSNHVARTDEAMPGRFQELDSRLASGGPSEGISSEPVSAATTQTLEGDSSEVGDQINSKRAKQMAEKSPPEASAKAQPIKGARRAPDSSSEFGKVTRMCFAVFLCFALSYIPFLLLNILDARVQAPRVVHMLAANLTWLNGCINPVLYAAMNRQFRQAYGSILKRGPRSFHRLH

Row | SMILES | pIC50 (GPR84) | pIC50 (human neutrophils) | % rem. (2 h) pH 1.2 [1] | % rem. (24 h) pH 1.2 [1] | % rem. (2 h) pH 5.0 [1] | % rem. (24 h) pH 5.0 [1] | % rem. (2 h) pH 7.4 [1] | % rem. (24 h) pH 7.4 [1] | % rem. (2 h) pH 9.0 [1] | % rem. (24 h) pH 9.0 [1]
1 | Cc1c2n(c(NCC3CCCO3)cc1=O)CCc1cc(OCC(F)(F)F)ccc1-2 (stereo not drawn) [Compound 8, 1-methyl-4-(tetrahydrofuran-2-ylmethylamino)-9-(2,2,2-trifluoroethoxy)-6,7-dihydrobenzo[a]quinolizin-2-one] | 6.30 to 7.00 | 7.00 to 11.00 | *** (>80%) | *** (>80%) | *** (>80%) | *** (>80%) | *** (>80%) | *** (>80%) | *** (>80%) | *** (>80%)
2 | COc1ccc2c(c1OC)CCn1c(NCC3CCCO3)cc(=O)c(C)c1-2 (stereo not drawn) [Compound 10, 8,9-dimethoxy-1-methyl-4-(tetrahydrofuran-2-ylmethylamino)-6,7-dihydrobenzo[a]quinolizin-2-one] | 7.00 to 11.00 | 7.00 to 11.00 | *** (>80%) | *** (>80%) | *** (>80%) | *** (>80%) | *** (>80%) | *** (>80%) | *** (>80%) | *** (>80%)
3 | CCOC(=O)N1CC=C(c2ccc3c(c2)CCn2c(OC[C@@H]4COCCO4)cc(=O)c(C)c2-3)CC1 [Compound 77, ethyl 4-[4-[[(2S)-1,4-dioxan-2-yl]methoxy]-1-methyl-2-oxo-6,7-dihydrobenzo[a]quinolizin-9-yl]-3,6-dihydro-2H-pyridine-1-carboxylate] | 7.00 to 11.00 | 7.00 to 11.00 | – | – | – | – | – | – | – | –
4 | Cc1c2n(c(OC[C@@H]3COCCO3)cc1=O)CCc1cc(C3=CCN(C(=O)OCC(F)(F)F)CC3)ccc1-2 [Compound 79, 2,2,2-trifluoroethyl 4-[4-[[(2S)-1,4-dioxan-2-yl]methoxy]-1-methyl-2-oxo-6,7-dihydrobenzo[a]quinolizin-9-yl]-3,6-dihydro-2H-pyridine-1-carboxylate] | 7.00 to 11.00 | 7.00 to 11.00 | – | – | – | – | – | – | – | –
5 | CCOC(=O)N1CCC(c2ccc3c(c2)CCn2c(OC[C@@H]4COCCO4)cc(=O)c(C)c2-3)CC1 [Compound 81, ethyl 4-[4-[[(2S)-1,4-dioxan-2-yl]methoxy]-1-methyl-2-oxo-6,7-dihydrobenzo[a]quinolizin-9-yl]piperidine-1-carboxylate] | 7.00 to 11.00 | 7.00 to 11.00 | – | – | – | – | – | – | – | –
6 | Cc1c2n(c(OC[C@@H]3COCCO3)cc1=O)CCc1cc(N3CC(F)(F)C3)ccc1-2 [Compound 86, 9-(3,3-difluoroazetidin-1-yl)-4-[[(2S)-1,4-dioxan-2-yl]methoxy]-1-methyl-6,7-dihydrobenzo[a]quinolizin-2-one] | 7.00 to 11.00 | 7.00 to 11.00 | – | – | – | – | – | – | – | –
7 | Cc1c2n(c(OC[C@@H]3COCCO3)cc1=O)CCc1cc(N3CC(F)C3)ccc1-2 [Compound 91, 4-[[(2S)-1,4-dioxan-2-yl]methoxy]-9-(3-fluoroazetidin-1-yl)-1-methyl-6,7-dihydrobenzo[a]quinolizin-2-one] | 7.00 to 11.00 | 6.30 to 7.00 | – | – | – | – | – | – | – | –
8 | Cc1c2n(c(OC[C@@H]3COCCO3)cc1=O)CCc1cc(N3CCC3)ccc1-2 [Compound 93, 9-(azetidin-1-yl)-4-[[(2S)-1,4-dioxan-2-yl]methoxy]-1-methyl-6,7-dihydrobenzo[a]quinolizin-2-one] | 7.00 to 11.00 | 6.30 to 7.00 | – | – | – | – | – | – | – | –
9 | Cc1c2n(c(OC[C@@H]3COCCO3)cc1=O)CCc1cc(N3CC(n4cccn4)C3)ccc1-2 [Compound 95, 4-[[(2S)-1,4-dioxan-2-yl]methoxy]-1-methyl-9-(3-pyrazol-1-ylazetidin-1-yl)-6,7-dihydrobenzo[a]quinolizin-2-one] | 7.00 to 11.00 | 6.30 to 7.00 | – | – | – | – | – | – | – | –

Results, then the compound that gave them:

Row | pIC50 (GPR84) | pIC50 (human neutrophils) | % rem. (2 h) pH 1.2 [1] | % rem. (24 h) pH 1.2 [1] | % rem. (2 h) pH 5.0 [1] | % rem. (24 h) pH 5.0 [1] | % rem. (2 h) pH 7.4 [1] | % rem. (24 h) pH 7.4 [1] | % rem. (2 h) pH 9.0 [1] | % rem. (24 h) pH 9.0 [1] | SMILES
10 | 6.30 to 7.00 | 6.30 to 7.00 | *** (>80%) | *** (>80%) | *** (>80%) | *** (>80%) | *** (>80%) | *** (>80%) | *** (>80%) | *** (>80%) | COc1cc2c(cc1OC)-c1c(C)c(=O)cc(OC[C@@H]3COCCO3)n1CC2 [Compound 1, 4-[[(2S)-1,4-dioxan-2-yl]methoxy]-9,10-dimethoxy-1-methyl-6,7-dihydrobenzo[a]quinolizin-2-one]
11 | 7.00 to 11.00 | 7.00 to 11.00 | – | – | – | – | – | – | – | – | COC(=O)N1CC=C(c2ccc3c(c2)CCn2c(OC[C@@H]4COCCO4)cc(=O)c(C)c2-3)CC1 [Compound 76, methyl 4-[4-[[(2S)-1,4-dioxan-2-yl]methoxy]-1-methyl-2-oxo-6,7-dihydrobenzo[a]quinolizin-9-yl]-3,6-dihydro-2H-pyridine-1-carboxylate]
12 | 7.00 to 11.00 | 7.00 to 11.00 | – | – | – | – | – | – | – | – | Cc1c2n(c(OC[C@@H]3COCCO3)cc1=O)CCc1cc(C3=CCN(C(=O)OC(C)C)CC3)ccc1-2 [Compound 78, isopropyl 4-[4-[[(2S)-1,4-dioxan-2-yl]methoxy]-1-methyl-2-oxo-6,7-dihydrobenzo[a]quinolizin-9-yl]-3,6-dihydro-2H-pyridine-1-carboxylate]
13 | 7.00 to 11.00 | 7.00 to 11.00 | – | – | – | – | – | – | – | – | COC(=O)N1CCC(c2ccc3c(c2)CCn2c(OC[C@@H]4COCCO4)cc(=O)c(C)c2-3)CC1 [Compound 80, methyl 4-[4-[[(2S)-1,4-dioxan-2-yl]methoxy]-1-methyl-2-oxo-6,7-dihydrobenzo[a]quinolizin-9-yl]piperidine-1-carboxylate]
14 | 7.00 to 11.00 | 7.00 to 11.00 | – | – | – | – | – | – | – | – | Cc1c2n(c(OC[C@@H]3COCCO3)cc1=O)CCc1cc(C3CCN(C(=O)OC(C)C)CC3)ccc1-2 [Compound 82, isopropyl 4-[4-[[(2S)-1,4-dioxan-2-yl]methoxy]-1-methyl-2-oxo-6,7-dihydrobenzo[a]quinolizin-9-yl]piperidine-1-carboxylate]
15 | 7.00 to 11.00 | 7.00 to 11.00 | – | – | – | – | – | – | – | – | Cc1c2n(c(OC[C@@H]3COCCO3)cc1=O)CCc1cc(C3CCN(C(=O)OCC(F)(F)F)CC3)ccc1-2 [Compound 83, 2,2,2-trifluoroethyl 4-[4-[[(2S)-1,4-dioxan-2-yl]methoxy]-1-methyl-2-oxo-6,7-dihydrobenzo[a]quinolizin-9-yl]piperidine-1-carboxylate]
